From patent publication EP4603105A1, “PHARMACEUTICAL COMPOSITION CONTAINING CYCLIC COMPOUND HAVING SELECTIVE KRAS INHIBITORY EFFECT AGAINST HRAS AND NRAS” (CHUGAI SEIYAKU KABUSHIKI KAISHA, priority 2022, dated 2024)
*1 amine or outer side, *2 acyl side, *3 side chain or, on linkers, in order; H or OH if unused. Where a SMILES comes first, the peptide text is derived from it. Bridges are numbered along the chain shown (N, C = ends). [ ]: non-standard residue; d: D form. The star is where a group is joined. hPhe(3,5-F2-4-CF3) = N[C@@H](CCc1cc(F)c(C(F)(F)F)c(F)c1)C(=O)O; NPrPhe(4-CF3) = CCCN[C@@H](Cc1ccc(C(F)(F)F)cc1)C(=O)O; NMeAbu(4,4,4-F3) = CN[C@@H](CC(F)(F)F)C(=O)O; X16 = O=C([C@@H](N[*:1])C1CC(F)(F)C1)[*:2]; NMeGly(cPent) = CN[C@H](C(=O)O)C1CCCC1; Ac4c(3,3-F2) = NC1(C(=O)O)CC(F)(F)C1; αMeCha = C[C@](N)(CC1CCCCC1)C(=O)O; Nva(3-Et) = CCC(CC)[C@H](N)C(=O)O; αMeI = CC[C@H](C)[C@](C)(N)C(=O)O; NMeD = CN[C@@H](CC(=O)O)C(=O)O; Ac4c(3-oxa) = NC1(C(=O)O)COC1; NMeL = CN[C@@H](CC(C)C)C(=O)O; Morpholide = C1CN(*)CCO1; Ac5c = NC1(C(=O)O)CCCC1; Aze = O=C(O)[C@@H]1CCN1; Sar = CNCC(=O)O

Assays:
[1] = test system: human lung cancer strain NCI-H441; type: cell-based
Procedure, shortened: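 Readout: […] after the ATP-based reagent. Compound: serial dilutions in dimethyl sulfoxide.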

[2] = target: GDP-bound NRAS wild-type protein (Homo sapiens, UniProt P01111); assay: Binding to NRAS by surface plasmon resonance (SPR), KD and KD ratio to KRAS
Procedure, shortened: (§1)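 GDP-loaded biotinylated Avi-tag RAS proteins (E. coli-expressed) captured on a Biotin CAPture chip at ~100–300 RU; single-cycle kinetics at 30°C, 100 µL/min, 75 s injections of rising compound concentrations. HBS pH 7.4 running buffer with 1 mM DTT, 10 mM MgCl2, 10 µM GDP, 4% DMSO. KD from 1:1 binding fit.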

HRAS wild-type protein = HRAS wild-type protein (Homo sapiens, UniProt P01112); assay: Binding to HRAS by surface plasmon resonance (SPR), KD and KD ratio to KRAS
Procedure, shortened: as §1

[3] = ratio of KD for GDP-bound NRAS wild-type protein to KD for KRAS
[4] = ratio of KD for HRAS wild-type protein to KD for KRAS

Sequence of HRAS wild-type protein (P01112 whole entry): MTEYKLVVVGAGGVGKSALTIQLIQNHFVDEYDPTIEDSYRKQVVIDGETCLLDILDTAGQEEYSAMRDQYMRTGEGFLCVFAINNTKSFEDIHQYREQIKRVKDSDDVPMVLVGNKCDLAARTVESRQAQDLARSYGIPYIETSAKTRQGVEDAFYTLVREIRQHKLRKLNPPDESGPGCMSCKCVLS
Sequence of GDP-bound NRAS wild-type protein (P01111 whole entry): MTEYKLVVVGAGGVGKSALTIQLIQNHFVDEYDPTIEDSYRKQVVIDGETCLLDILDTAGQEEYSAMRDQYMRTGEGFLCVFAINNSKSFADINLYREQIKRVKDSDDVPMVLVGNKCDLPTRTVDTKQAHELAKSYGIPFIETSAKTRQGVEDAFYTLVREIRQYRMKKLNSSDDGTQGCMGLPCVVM

Row | Compound | IC50 [1] | NRAS /KRAS ([2]; ratio of the KD value with respect to GDP-bound NRAS wild-type protein to the KD value with respect to KRAS) | HRAS /KRAS (HRAS wild-type protein; ratio of the KD value with respect to HRAS wild-type protein to the KD value with respect to KRAS) | NRAS /KRAS [2, 3] | HRAS /KRAS (HRAS wild-type protein; [4])
1 | CCCN1C(=O)CN(C)C(=O)CN(C)C(=O)[C@H]([C@@H](C)CC)NC(=O)[C@H](CC(C)C)N(C)C(=O)C[C@@H](C(=O)N2CCOCC2)N(C)C(=O)[C@H](C2CCCC2)N(C)C(=O)[C@](C)(CC2CCCCC2)NC(=O)[C@@H]2CCCN2C(=O)[C@H](CCc2cc(F)c(C(F)(F)F)c(F)c2)NC(=O)CN(C)C(=O)[C@@H]1Cc1ccc(C(F)(F)F)cc1 [PP0760] ([NMeL]I[Sar][Sar][NPrPhe(4-CF3)][Sar][hPhe(3,5-F2-4-CF3)]P[αMeCha][NMeGly(cPent)][NMeD]-Morpholide; lactam N-11) | 310 nM | B (a compound having 3 or more and less than 10 is denoted as B) | C (A compound having a KD ratio of 0.1 or more and less than 3 is denoted as C) |  | 
2 | CCCN1C(=O)CN(C)C(=O)CN(C)C(=O)[C@H]([C@@H](C)CC)NC(=O)[C@H](CC(C)C)N(C)C(=O)C[C@@H](C(=O)N2CCOCC2)N(C)C(=O)[C@H](C2CCCC2)N(C)C(=O)C2(COC2)NC(=O)[C@@H]2CCCN2C(=O)[C@H](CCc2cc(F)c(C(F)(F)F)c(F)c2)NC(=O)CN(C)C(=O)[C@@H]1Cc1ccc(C(F)(F)F)cc1 [PP0765] ([NMeL]I[Sar][Sar][NPrPhe(4-CF3)][Sar][hPhe(3,5-F2-4-CF3)]P[Ac4c(3-oxa)][NMeGly(cPent)][NMeD]-Morpholide; lactam N-11) | 123 nM |  |  | B (a compound having 3 or more and less than 10 is denoted as B) | C (A compound having a KD ratio of 0.1 or more and less than 3 is denoted as C)
3 | CCCN1C(=O)CN(C)C(=O)CN(C)C(=O)[C@H]([C@@H](C)CC)NC(=O)[C@H](CC(C)C)N(C)C(=O)C[C@@H](C(=O)N2CCOCC2)N(C)C(=O)[C@H](C2CCCC2)N(C)C(=O)C2(CC(F)(F)C2)NC(=O)[C@@H]2CCCN2C(=O)[C@H](CCc2cc(F)c(C(F)(F)F)c(F)c2)NC(=O)CN(C)C(=O)[C@@H]1Cc1ccc(C(F)(F)F)cc1 [PP0766] ([NMeL]I[Sar][Sar][NPrPhe(4-CF3)][Sar][hPhe(3,5-F2-4-CF3)]P[Ac4c(3,3-F2)][NMeGly(cPent)][NMeD]-Morpholide; lactam N-11) | 8.7 nM |  |  | B (a compound having 3 or more and less than 10 is denoted as B) | B (a compound having 3 or more and less than 10 is denoted as B)
4 | CCCN1C(=O)CN(C)C(=O)CN(C)C(=O)[C@H]([C@@H](C)CC)NC(=O)[C@H](CC(C)C)N(C)C(=O)C[C@@H](C(=O)N2CCOCC2)N(C)C(=O)[C@H](CC(F)(F)F)N(C)C(=O)C2(CCCC2)NC(=O)[C@@H]2CCCN2C(=O)[C@H](CCc2cc(F)c(C(F)(F)F)c(F)c2)NC(=O)CN(C)C(=O)[C@@H]1Cc1ccc(C(F)(F)F)cc1 [PP0767] ([NMeL]I[Sar][Sar][NPrPhe(4-CF3)][Sar][hPhe(3,5-F2-4-CF3)]P[Ac5c][NMeAbu(4,4,4-F3)][NMeD]-Morpholide; lactam N-11) | 158 nM |  |  | B (a compound having 3 or more and less than 10 is denoted as B) | C (A compound having a KD ratio of 0.1 or more and less than 3 is denoted as C)
5 | CCCN1C(=O)CN(C)C(=O)CN(C)C(=O)[C@H](C(CC)CC)NC(=O)[C@H](CC(C)C)N(C)C(=O)C[C@@H](C(=O)N2CCOCC2)N(C)C(=O)[C@H](C2CCCC2)N(C)C(=O)C2(CCCC2)NC(=O)[C@@H]2CCCN2C(=O)[C@H](CCc2cc(F)c(C(F)(F)F)c(F)c2)NC(=O)CN(C)C(=O)[C@@H]1Cc1ccc(C(F)(F)F)cc1 [PP0768] ([NMeL][Nva(3-Et)][Sar][Sar][NPrPhe(4-CF3)][Sar][hPhe(3,5-F2-4-CF3)]P[Ac5c][NMeGly(cPent)][NMeD]-Morpholide; lactam N-11) | 36.1 nM |  |  | B (a compound having 3 or more and less than 10 is denoted as B) | C (A compound having a KD ratio of 0.1 or more and less than 3 is denoted as C)
6 | CCCN1C(=O)CN(C)C(=O)CN(C)C(=O)[C@H](C2CC(F)(F)C2)NC(=O)[C@H](CC(C)C)N(C)C(=O)C[C@@H](C(=O)N2CCOCC2)N(C)C(=O)[C@H](C2CCCC2)N(C)C(=O)C2(CCCC2)NC(=O)[C@@H]2CCCN2C(=O)[C@H](CCc2cc(F)c(C(F)(F)F)c(F)c2)NC(=O)CN(C)C(=O)[C@@H]1Cc1ccc(C(F)(F)F)cc1 [PP0769] ([NMeL][X16][Sar][Sar][NPrPhe(4-CF3)][Sar][hPhe(3,5-F2-4-CF3)]P[Ac5c][NMeGly(cPent)][NMeD]-Morpholide; lactam N-11) | 43.3 nM |  |  | B (a compound having 3 or more and less than 10 is denoted as B) | C (A compound having a KD ratio of 0.1 or more and less than 3 is denoted as C)
7 | CCCN1C(=O)CN(C)C(=O)[C@@H]2CCN2C(=O)[C@H]([C@@H](C)CC)NC(=O)[C@H](CC(C)C)N(C)C(=O)C[C@@H](C(=O)N2CCOCC2)N(C)C(=O)[C@H](C2CCCC2)N(C)C(=O)C2(CCCC2)NC(=O)[C@@H]2CCCN2C(=O)[C@H](CCc2cc(F)c(C(F)(F)F)c(F)c2)NC(=O)CN(C)C(=O)[C@@H]1Cc1ccc(C(F)(F)F)cc1 [PP0770] ([NMeL]I[Aze][Sar][NPrPhe(4-CF3)][Sar][hPhe(3,5-F2-4-CF3)]P[Ac5c][NMeGly(cPent)][NMeD]-Morpholide; lactam N-11) | 62.2 nM |  |  | B (a compound having 3 or more and less than 10 is denoted as B) | B (a compound having 3 or more and less than 10 is denoted as B)
8 | CCCN1C(=O)CN(C)C(=O)[C@@H]2CCN2C(=O)[C@H]([C@@H](C)CC)NC(=O)[C@H](CC(C)C)N(C)C(=O)C[C@@H](C(=O)N2CCOCC2)N(C)C(=O)[C@H](C2CCCC2)N(C)C(=O)[C@](C)([C@@H](C)CC)NC(=O)[C@@H]2CCCN2C(=O)[C@H](CCc2cc(F)c(C(F)(F)F)c(F)c2)NC(=O)CN(C)C(=O)[C@@H]1Cc1ccc(C(F)(F)F)cc1 [PP0774] ([NMeL]I[Aze][Sar][NPrPhe(4-CF3)][Sar][hPhe(3,5-F2-4-CF3)]P[αMeI][NMeGly(cPent)][NMeD]-Morpholide; lactam N-11) | 478 nM |  |  | B (a compound having 3 or more and less than 10 is denoted as B) | B (a compound having 3 or more and less than 10 is denoted as B)
9 | CCCN1C(=O)CN(C)C(=O)[C@@H]2CCN2C(=O)[C@H]([C@@H](C)CC)NC(=O)[C@H](CC(C)C)N(C)C(=O)C[C@@H](C(=O)N2CCOCC2)N(C)C(=O)[C@H](C2CCCC2)N(C)C(=O)C2(COC2)NC(=O)[C@@H]2CCCN2C(=O)[C@H](CCc2cc(F)c(C(F)(F)F)c(F)c2)NC(=O)CN(C)C(=O)[C@@H]1Cc1ccc(C(F)(F)F)cc1 [PP0782] ([NMeL]I[Aze][Sar][NPrPhe(4-CF3)][Sar][hPhe(3,5-F2-4-CF3)]P[Ac4c(3-oxa)][NMeGly(cPent)][NMeD]-Morpholide; lactam N-11) | 425 nM |  |  | B (a compound having 3 or more and less than 10 is denoted as B) | B (a compound having 3 or more and less than 10 is denoted as B)
10 | CCCN1C(=O)CN(C)C(=O)[C@@H]2CCN2C(=O)[C@H]([C@@H](C)CC)NC(=O)[C@H](CC(C)C)N(C)C(=O)C[C@@H](C(=O)N2CCOCC2)N(C)C(=O)[C@H](C2CCCC2)N(C)C(=O)C2(CC(F)(F)C2)NC(=O)[C@@H]2CCCN2C(=O)[C@H](CCc2cc(F)c(C(F)(F)F)c(F)c2)NC(=O)CN(C)C(=O)[C@@H]1Cc1ccc(C(F)(F)F)cc1 [PP0783] ([NMeL]I[Aze][Sar][NPrPhe(4-CF3)][Sar][hPhe(3,5-F2-4-CF3)]P[Ac4c(3,3-F2)][NMeGly(cPent)][NMeD]-Morpholide; lactam N-11) | 122 nM |  |  | B (a compound having 3 or more and less than 10 is denoted as B) | B (a compound having 3 or more and less than 10 is denoted as B)
11 | CCCN1C(=O)CN(C)C(=O)[C@@H]2CCN2C(=O)[C@H]([C@@H](C)CC)NC(=O)[C@H](CC(C)C)N(C)C(=O)C[C@@H](C(=O)N2CCOCC2)N(C)C(=O)[C@H](CC(F)(F)F)N(C)C(=O)C2(CCCC2)NC(=O)[C@@H]2CCCN2C(=O)[C@H](CCc2cc(F)c(C(F)(F)F)c(F)c2)NC(=O)CN(C)C(=O)[C@@H]1Cc1ccc(C(F)(F)F)cc1 [PP0784] ([NMeL]I[Aze][Sar][NPrPhe(4-CF3)][Sar][hPhe(3,5-F2-4-CF3)]P[Ac5c][NMeAbu(4,4,4-F3)][NMeD]-Morpholide; lactam N-11) | 447 nM |  |  | B (a compound having 3 or more and less than 10 is denoted as B) | B (a compound having 3 or more and less than 10 is denoted as B)
12 | CCCN1C(=O)CN(C)C(=O)[C@@H]2CCN2C(=O)[C@H](C2CC(F)(F)C2)NC(=O)[C@H](CC(C)C)N(C)C(=O)C[C@@H](C(=O)N2CCOCC2)N(C)C(=O)[C@H](C2CCCC2)N(C)C(=O)C2(CCCC2)NC(=O)[C@@H]2CCCN2C(=O)[C@H](CCc2cc(F)c(C(F)(F)F)c(F)c2)NC(=O)CN(C)C(=O)[C@@H]1Cc1ccc(C(F)(F)F)cc1 [PP0786] ([NMeL][X16][Aze][Sar][NPrPhe(4-CF3)][Sar][hPhe(3,5-F2-4-CF3)]P[Ac5c][NMeGly(cPent)][NMeD]-Morpholide; lactam N-11) | 44.8 nM |  |  | B (a compound having 3 or more and less than 10 is denoted as B) | B (a compound having 3 or more and less than 10 is denoted as B)
